Laboratory results as given in patent publication US10443044B2, “Generating cardiac progenitor cells from pluripotent stem cells using isoxazole or isoxazole like compounds” (IPS Heart, priority 2014, dated 2019).
“Also recorded” adds a separate entry of the source.

Columns and labels:
IPS cells [1] = assay: Cytochrome c translocation to cytoplasm after H2O2, immunostaining; format: cell-based, mouse; conditions: after exposure to H2O2 (100 μmol), vs non-treated IPS cells
Method: Immunostaining of cytochrome c in non-treated and small molecule, isoxazole or isoxazole like compounds treated IPS cells after exposure to H2O2 ([…]), (merged images with DAPI), (original magnifications; 200×).
(§1) In order to direct SiPS towards cardiac lineage cells, they were treated with a small molecule (Isoxazole, 20 uM, Sigma-Aldrich or ISX-9, StemCell Technologies, Inc Vancouver, BC) for five days and analyzed for DNA methyltransferase (Dnmt) activity, cell proliferation, and cardiac gene expression.

IPS cells [2] = assay: miR microarray analysis; format: cell-based, mouse; conditions: treated vs non-treated IPS cells
Method: FIGS. 7A-7E show miR-microarray analysis of small molecule, isoxazole like compounds treated IPS vs non-treated IPS cells. Microarray analysis showing miR expression profile in non-treated IPS cells was quite different from small molecule treated IPS cells.
(§2) Approximately 60% treated iPS cells were positive for Nkx-2.5. Given that posttranscriptional regulation is crucial for gene expression and cell survival molecular phenotypic analysis was performed, Affymetrix array-based gene expression profiling further confirmed 2-3 folds downregulation of Dnmt1, Dnmt3b and Max gene associated protein which were associated with global DNA hypomethylation and myc dependent cell transformation (see Table 1). Additionally, there was a 2-3 fold concomitant upregulation in the CCL7, CXCR2, CXCR5, integral membrane protein 2A, and ephrin A3. (FIG. 6).

Gαi = assay: Western blot of Gα protein (GPCR signaling); format: cell-based, mouse
Nkx-2.5 = assay: Cardiac gene expression, RT-PCR and immunostaining; format: cell-based, mouse
Method: as §1
Total RNA from small molecule treated and non-treated SiPS cells was isolated using RNeasy mini kit (Qiagen, Maryland, USA) and Omniscript Reverse Transcription kit (Qiagen, Maryland, USA) was used for the respective cDNA synthesis per manufacturer's instructions. […] PCR conditions included initial denaturation at 95° C. for 4 minutes, 32 cycles of denaturation at 95° C. for 1 minute, annealing at 55° C. for 1 minute, extension at 72° C. for 1 minute and final extension at 72° C. for 7 minutes. The PCR products were separated on 1.5% agarose gel, stained with ethidium bromide and visualized and photographed on a UV transluminator (Bio-Rad, USA).
For immunocytochemistry, differentiated colonies of SiPS were immunostained with respective specific primary antibodies (anti-Oct3/4, anti-Sox2, anti-Nanog antibodies, all at 1:100 concentration; Cell Signaling, Danvers, USA). […] The primary antibody-antigen reaction was detected with fluorescently conjugated specific secondary antibodies. […] Fluorescence signals were observed and photographed using fluorescence microscopy (Olympus; Tokyo, Japan).

[3] = system: Human iPSC line (ACS-1021); assay: Generation of cardiac progenitor cells from human iPS cells and differentiation into three lineages; format: cell-based
[4] = system: DNA methyltransferase (DNMT); assay: DNA methyltransferase (DNMT) activity assay in small molecule treated SiPS; format: cell-based, mouse
Method: as §1
Nuclear extracts were isolated using the NE-PER Nuclear and Cytoplasmic Extraction Kit (Thermo Scientific, IL USA). Total DNMT activity was determined using an EpiQuik DNA methyltransferase activity assay kit (Epigentek, Brooklyn, N.Y.) per manufacturer's protocol. Enzyme activity for samples and controls was measured on a microplate reader (Hidex Chameleon, Finland) at 450 nm and DNMT activity (OD/h/ml) was calculated according to the formula: (Sample OD−blank OD)/(sample volume)×1000.

IPS cells [5] = assay: Affymetrix array-based gene expression profiling; format: cell-based, mouse
Method: as §1, §2
Affymetrix array-based gene expression profiling further confirmed 2-3 folds downregulation of Dnmt1, Dnmt3b and Max gene associated protein which were associated with global DNA hypomethylation and myc dependent cell transformation. In addition, there was 2-3 folds concomitant upregulation of CCL7, CXCR2, CXCR5, integral membrane protein 2A, and EphrinA3.

IPS cells [6] = assay: Oxidant induced apoptosis, TUNEL assay; format: cell-based, mouse; conditions: pretreated IPS vs non-treated IPS, listed as small molecule
Method: In FIG. 3A, apoptosis was determined by TUNEL assay. […] All values were expressed as mean±SEM, * p<0.05 vs. control.
as §1

SiPS = assay: Cell proliferation assay (MTS); format: cell-based, mouse; conditions: treated vs non treated SiPS, p<0.01; listed as small molecule
Method: as §1
The cell proliferation assay was performed with the use of the MTS [3-(4,5-dimethylthiazol-2-yl)-5-(3-carboxymethoxyphenyl)-2-(4-sulfophenyl)-2H-tetrazolium] assay according to the manufacturer's recommendations (Promega). The plates were read at 490 nm using an automated ELISA plate-reader for the quantity of formazan product which was directly proportional to the number of living cells in culture.

[7] = system: Skeletal myoblasts (SMs) from Oct3/4-GFP+ transgenic mouse; assay: Reprogramming of skeletal myoblasts to iPS cells; format: cell-based; conditions: 500 μM in 0.5% DMSO, 5-days; two weeks later
Method: Skeletal myoblasts (SMs) purified from young male Oct3/4-GFP^+ transgenic mouse were treated with DNA methyltransferase inhibitor 500 μM RG-108 in 0.5% DMSO in knock out DMEM for 5-days. […] Although the research described herein was conducted in a murine model, the use of the same markers and agents will provide similar if not identical results in human cells and tissue.

[8] = basal differentiation conditions
[9] = hiPSC, 7 day small molecule treatment
[10] = Affymetrix array, treated vs non-treated iPS cells
[11] = IPs + Small Molecule, regulation down
[12] = IPs + Small Molecule, regulation up

For `O=C(NC1CC1)c1cc(-c2cccs2)on1` [ISX-9, N-cyclopropyl-5-thiophen-2-yl-1,2-oxazole-3-carboxamide], the “cytochrome c translocation to cytoplasm” value (IPS cells [1]) was “significant decrease”, the “cardiac specific miR-133, miR-762 expression” value (IPS cells [2]) was “upregulation” and the “pluripotency associated miR-290 cluster, miR-574-5p and let-7 family expression” value (IPS cells [2]) was “down regulation”. For the same molecule, the “Gαi / Gα (pan) protein level” value (Gαi; Western blot, treated vs untreated IPS cells) was “significant upregulation”, the “treated iPS cells positive for Nkx-2.5” value (Nkx-2.5; SiPS, 20 uM, five days) was “Approximately 60%” and the “Nkx-2.5 expression, RT-PCR” value (Nkx-2.5; treated vs non treated IPS, p<0.01) was “significant upregulation”. The “expression of CPC markers including Nkx2.5 and GATA4, RT-PCR and immunostaining” value ([3]; 20 μM, 7 days, RPMI/B27 minus insulin) was “observed”, the “spontaneous beating (cardiomyocyte differentiation)” value ([3]; 7 days treatment, then RPMI/B27 with insulin 7-10 days, end of 20 days) was “all the cells began spontaneous beating” and the “percentage of CMs (TnT+) from Nkx2.5+ cells” value [3, 8] was 95.2±2.1%. For the same molecule, the “percentage of ECs (CD31+) from Nkx2.5+ cells” value [3, 8] was 90.3±2.5%, the “percentage of SMCs (α-SMA+) from Nkx2.5+ cells” value [3, 8] was 92.3±1.8% and the “purity of Nkx2.5 positive cells by FACS” value [3, 9] was 96.5±2.5%. The “transcription factors (Nkx2.5, GATA4 and ISL-1), immunofluorescence staining” value [3, 9] was “highly expressed”, the “α-SMA and calponin expression, immunostaining” value ([3]; induced CPC in DMEM-F12 with TGFβ and PDGFBB, 10 days) was “observed” and the “endothelial cell markers CD31 and VE-cadherin” value ([3]; induced CPC in EGM-2 medium, 10 days) was “expressed”. For the same molecule, the “converting iPSC into cardiac progenitors including endothelial/vascular progenitors and smooth muscle cells” value ([3]; overall conclusion) was “very effective”, the DNMT activity ([4]; SiPS, 20 uM, five days) was “completely abolished” and the “reduction in global DNA methylation” value ([4]; SiPS, 20 uM, five days, FIG. 2) was 95%. For the same molecule, the “inhibition of DNA methyltransferase activity” value ([4]; treated IPS cells vs nontreated IPS cells, FIG. 2) was 95%, the “downregulation of Dnmt1, Dnmt3b and Max gene associated protein” value (IPS cells [5]; [10]) was 2-3 folds and the “upregulation of CCL7, CXCL2, CXCL5, integral membrane protein 2A and ephrin A3” value (IPS cells [5]; [10]) was 2-3 fold. For the same molecule, the “Fold change Dnmt1, DNA methyltransferase” value (IPS cells [5]; [11]) was −1.612 fold, the “Fold change Dnmt3b, DNA methyltransferase 3B” value (IPS cells [5]; [11]) was −1.282 fold and the “Fold change Mga, MAX gene associated protein” value (IPS cells [5]; [11]) was −1.104 fold. For the same molecule, the “Fold change Ccl7, chemokine (C-C motif) ligand 7” value (IPS cells [5]; [12]) was 3.316 fold, the “Fold change Cox6b1, cytochrome c oxidase subunit VIb polypeptide 1” value (IPS cells [5]; [12]) was 2.546 fold and the “Fold change Cox16, COX16 cytochrome c oxidase assembly homolog” value (IPS cells [5]; [12]) was 3.006 fold. The “Fold change Cxcl2, chemokine (C-X-C motif) ligand 2” value (IPS cells [5]; [12]) was 2.732 fold, the “Fold change Cxcl5, chemokine (C-X-C motif) ligand 5” value (IPS cells [5]; [12]) was 2.137 fold and the “Fold change Efna3, ephrin A3” value (IPS cells [5]; [12]) was 2.088 fold. For the same molecule, the “Fold change Itm2a, integral membrane protein 2A” value (IPS cells [5]; [12]) was 2.255 fold, the “Fold change Itm2b, integral membrane protein 2B” value (IPS cells [5]; [12]) was 2.18 fold and the “Fold change Uqcr10, ubiquinol-cytochrome c reductase complex III subunit X” value (IPS cells [5]; [12]) was 2.298 fold. For the same molecule, the “apoptosis (TUNEL positive cells)” value (IPS cells [6]) was “tolerant to apoptosis; also recorded: reduced the apoptosis; also recorded: Fewer TUNEL positive cells/microscopic field” and the “proliferative activity / mitogenic response” value (SiPS) was “increased proliferative activity; also recorded: increase in mitogenic response”.

With `O=C(O)C(Cc1c[nH]c2ccccc12)N1C(=O)c2ccccc2C1=O` [RG-108, N-phthalyl-L-tryptopha] the “generation of iPS cell colonies” value [7] was “GFP^+ colonies of SM derived iPS cells (SiPS)”.

pertussis toxin was tested, and the “effect on small molecule induced Gα (pan) upregulation” value (Gαi; concomitant use with small molecule in IPS cells) was “blocked”.
